According to US8063221B2, “Aminoquinolones as GSK-3 inhibitors” (Kyorin Pharmaceutical Co., Ltd., priority 2006, dated 2011):
Values after ≈ are worked out from the molar mass of the structure shown. Read-outs that look alike come from different tables or passages of the source.

Experiments:
[1] = target: T1, recombinant full-length human GSK3β (Homo sapiens, UniProt P49841); test: Luciferase-coupled cell-free GSK3β kinase assay; format: biochemical
T1 construct: recombinant full-length human GSK3β (Upstate); purchased Upstate
How it was run: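 GSK3β, 10-25 ng, was incubated with compound for 1 h at 30° C in MOPS pH 7.0 buffer containing 62.5 μM phospho-glycogen synthase peptide-2 and 5 μM ATP. Remaining ATP was read by KinaseGlo luminescence, and IC50 was fitted from % inhibition relative to maximal inhibition.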

E. coli, ATCC8739 = test: Antibacterial activity (MIC), E. coli; format: cell-based; details: Escherichia coli
From the text: (§1) As used herein, a minimum inhibitory concentration (MIC) for bacterial growth assay is the lowest level of a compound needed to cause an inhibition to bacterial growth in culture medium. In certain embodiments, the antibacterial activity of compounds herein, measured as MIC.
(§2) In certain embodiments, GSK3 inhibitors provided herein are substantially free of antibacterial activity or having very low antibacterial activity. The antibacterial activity can be measured by methods known in the art by estimating a minimum inhibitory concentration (MIC) for test compounds. A MIC is the lowest level of a compound needed to cause an inhibition to bacterial growth in a culture medium. […] (Clinical and Laboratory Standards Institute. Methods for Dilution Antimicrobial Susceptibility Tests for Bacteria That Grow Aerobically; Approved Standard-Sixth Edition: CLSI document […]. CLSI, Wayne, Pa. (2003))
(§3) Antibacterial activity for E. coli, ATCC8739 andS. aureus Smith expressed as MIC (μM) is provided as follows: […]

S. aureus Smith = test: Antibacterial activity (MIC), S. aureus; format: cell-based; details: Staphylococcus aureus
From the text: as §1, §2, §3

[2] = ATCC8739, Table 1, E. coli ATCC8739, read-out: Antibacterial MIC (μM) E.Coli
[3] = Table 1, read-out: Antibacterial MIC (μM) S. aureus Smith
[4] = ATCC8739, Table 2, E. coli ATCC8739, read-out: Antimicrobial MIC [μM] E. Coli
[5] = Table 2, S. aureus Smith, read-out: Antimicrobial MIC [μM] S. aureus
[6] = ATCC8739, read-out: Antibacterial MIC (μM) E.Coli
[7] = read-out: Antibacterial MIC (μM) S. aureus Smith

T1 sequence (P49841 whole entry): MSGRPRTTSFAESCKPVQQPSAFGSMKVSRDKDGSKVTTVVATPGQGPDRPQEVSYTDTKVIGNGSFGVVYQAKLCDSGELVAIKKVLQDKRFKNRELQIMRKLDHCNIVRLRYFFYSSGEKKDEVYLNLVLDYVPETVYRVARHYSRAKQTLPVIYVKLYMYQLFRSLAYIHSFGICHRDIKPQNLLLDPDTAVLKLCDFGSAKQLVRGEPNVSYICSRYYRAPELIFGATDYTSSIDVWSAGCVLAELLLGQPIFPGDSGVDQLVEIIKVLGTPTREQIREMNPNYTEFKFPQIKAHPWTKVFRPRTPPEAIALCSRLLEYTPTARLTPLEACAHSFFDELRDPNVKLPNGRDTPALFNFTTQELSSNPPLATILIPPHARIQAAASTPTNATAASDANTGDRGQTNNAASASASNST

Compound | IC50 ([1]; Table 1) [nM] | MIC (E. coli, ATCC8739; [2]) [µM] | MIC (S. aureus Smith; [3]) [µM] | IC50 ([1]; Table 2) [nM] | MIC (E. coli, ATCC8739; [4]) [µM] | MIC (S. aureus Smith; [5]) [µM] | MIC (E. coli, ATCC8739; [6]) [µM] | MIC (S. aureus Smith; [7]) [µM]
CC(C)OCCCNc1c(F)c(N)c2c(=O)c(C(=O)O)cn(CCc3ccccc3)c2c1F [compound 50] | 500 to 1000 | 0.5 to 10 (≈ 0.23 to 4.59 µg/mL) | 0.5 to 10 (≈ 0.23 to 4.59 µg/mL) |  |  |  |  | 
CC(C)[C@H]1COc2c(NCCNc3ccccn3)c(F)c(N)c3c(=O)c(C(=O)O)cn1c23 [compound 60] |  |  |  | < 100 | 10 to 50 (≈ 4.41 to 22.1 µg/mL) | 10 to 50 (≈ 4.41 to 22.1 µg/mL) |  | 
COc1c(NCCNc2ccccn2)c(F)c(N)c2c(=O)c(C(=O)O)c(C)n(C3CC3)c12 [Example 123] |  |  |  | < 100 | > 50 | > 50 |  | 
CC1COc2c(NCCc3ccncc3)c(F)c(N)c3c(=O)c(C(=O)O)cn1c23 (stereo not drawn) [compound 3] |  |  |  | 100 to 500 | 0.5 to 10 (≈ 0.199 to 3.98 µg/mL) | 0.5 to 10 (≈ 0.199 to 3.98 µg/mL) |  | 
Nc1c(F)c(NCCc2ccc(F)cc2F)c(F)c2c1c(=O)c(C(=O)O)cn2C1CC1 [compound 19] | 100 to 500 | 0.5 to 10 (≈ 0.218 to 4.35 µg/mL) | 0.5 to 10 (≈ 0.218 to 4.35 µg/mL) |  |  |  |  | 
Nc1c(F)c(NCCc2ccncc2)c(F)c2c1c(=O)c(C(=O)O)cn2C1CC1 [compound 3] | 100 to 500 | 0.5 to 10 (≈ 0.2 to 4 µg/mL) | < 0.5 |  |  |  |  | 
Nc1c(F)c(NCCc2ccc(F)cc2)c(F)c2c1c(=O)ccn2C1CC1 [compound 10] | 500 to 1000 |  |  |  |  |  | 10 to 50 (≈ 3.73 to 18.7 µg/mL) | 10 to 50 (≈ 3.73 to 18.7 µg/mL)
NC1=C2C(=O)C(C(=O)O)=CN3CCCCOC(C(NCCNc4ccccn4)=C1F)C23 (stereo not drawn) [Example 140] |  |  |  | 500 to 1000 | > 50 | > 50 |  | 
Nc1c(F)c(NCCNc2cccc3ccccc23)c(F)c2c1c(=O)c(C(=O)O)cn2C1CCCC1 [compound 56] | < 100 | 10 to 50 (≈ 4.93 to 24.6 µg/mL) | 10 to 50 (≈ 4.93 to 24.6 µg/mL) |  |  |  |  | 
CC(C)OCCCNc1c(F)c(N)c2c(=O)c(C(=O)O)cn(C3CCCC3)c2c1F [compound 55] | < 100 |  |  |  |  |  | 10 to 50 (≈ 4.23 to 21.2 µg/mL) | 10 to 50 (≈ 4.23 to 21.2 µg/mL)
Nc1c(F)c(NCCc2ccncc2)c(F)c2c1c(=O)ccn2C1CCCC1 [compound 73] | < 100 | > 50 | > 50 |  |  |  |  | 
CC1(C)COc2c(NCCc3ccncc3)c(F)c(N)c3c(=O)c(C(=O)O)cn1c23 [compound 39] |  |  |  | 100 to 500 | > 50 | 10 to 50 (≈ 4.12 to 20.6 µg/mL) |  | 
Nc1c(F)c(NCCCc2ccccc2)c(F)c2c1c(=O)ccn2CCc1ccccc1 [compound 58] | 100 to 500 | 10 to 50 (≈ 4.34 to 21.7 µg/mL) | 10 to 50 (≈ 4.34 to 21.7 µg/mL) |  |  |  |  | 
Nc1c(F)c(NCCNc2ccccn2)c(F)c2c1c(=O)ccn2C1CC1 [compound 15] | 100 to 500 | > 50 | > 50 |  |  |  |  | 
Nc1c(F)c(NCCCCc2ccccc2)c(F)c2c1c(=O)c(C(=O)O)cn2C1CC1 [compound 20] | 100 to 500 | 10 to 50 (≈ 4.27 to 21.4 µg/mL) | 0.5 to 10 (≈ 0.214 to 4.27 µg/mL) |  |  |  |  | 
Nc1c(F)c(NCCCn2ccnc2)c(F)c2c1c(=O)ccn2C1CCCC1 [compound 74] | < 100 | > 50 | > 50 |  |  |  |  | 
COc1c(NCCNc2ccccn2)c(F)c(NC(=O)C(F)(F)F)c2c(=O)c(C#N)cn(C3CC3)c12 [Example 141] |  |  |  | < 100 | 0.5 to 10 (≈ 0.252 to 5.04 µg/mL) | 0.5 to 10 (≈ 0.252 to 5.04 µg/mL) |  | 
Nc1c(F)c(NCCCc2ccccc2)c(F)c2c1c(=O)c(C(=O)O)cn2CCc1ccccc1 [compound 46] | < 100 | 10 to 50 (≈ 4.78 to 23.9 µg/mL) | 10 to 50 (≈ 4.78 to 23.9 µg/mL) |  |  |  |  | 
Nc1c(F)c(NCCNc2ccccn2)cc2c1c(=O)c(C(=O)O)cn2C1CCOCC1 [Example 135] |  |  |  | < 100 | 10 to 50 (≈ 4.41 to 22.1 µg/mL) | 10 to 50 (≈ 4.41 to 22.1 µg/mL) |  | 
CC1(C)COc2c(NCCNc3ccccn3)c(F)c(N)c3c(=O)c(C(=O)O)cn1c23 [compound 16] |  |  |  | < 100 | > 50 | > 50 |  | 
COc1c(NCCCn2ccnc2)c(F)c(N)c2c(=O)ccn(C3CC3)c12 [compound 2] |  |  |  | 100 to 500 | > 50 | > 50 |  | 
Nc1c(F)c(NCCCc2ccccc2)c(F)c2c1c(=O)ccn2C1CC1 [compound 13] | 100 to 500 | 10 to 50 (≈ 3.69 to 18.5 µg/mL) | 10 to 50 (≈ 3.69 to 18.5 µg/mL) |  |  |  |  | 
Nc1c(F)c(NCCc2ccncc2)c(F)c2c1c(=O)c(C(=O)O)cn2CCc1ccccc1 [compound 47] | < 100 | 10 to 50 (≈ 4.64 to 23.2 µg/mL) | 10 to 50 (≈ 4.64 to 23.2 µg/mL) |  |  |  |  | 
